From patent publication US8207342B2, “Substituted 3-amino-2-mercaptoquinolines as KCNQ2/3 modulators” (Gruenenthal GmbH, priority 2009, dated 2012)

Tests used:
KCNQ2/3 channels = molecular target: T1, KCNQ2/3 channels (Homo sapiens, UniProt O43525+O43526); experiment: Fluorescence assay using a voltage sensitive dye (fluorimetry); assay type: cell-based; details: CHO-K1 cells expressing KCNQ2/3 channels; for EC50: agonistic activity; for Emax: relative to retigabine = 100%, read-out: Fluorimetry % efficacy (retigabine = 100%)
T1 construct: expressed in transfected cells
Procedure: Fluorescence Assay using a Voltage Sensitive Dye
Human CHO—K1 cells expressing KCNQ2/3 channels are cultivated adherently at 37° C., 5% CO2 and 95% humidity in cell culture bottles (e.g. 80 cm^2 TC flasks, Nunc) with DMEM-high glucose (Sigma Aldrich, D7777) including 10% FCS (PAN Biotech, e.g. 3302-P270521) or alternatively MEM Alpha Medium (1×, liquid, Invitrogen, #22571), 10% fetal calf serum (FCS) (Invitrogen, #10270-106, heat-inactivated) and the necessary selection antibiotics.
Before being sown out for the measurements, the cells are washed with a 1×DPBS buffer without Ca^2+/Mg^2+ (e.g. Invitrogen, #14190-094) and detached from the bottom of the culture vessel by means of Accutase (PAA Laboratories, #L11-007) (incubation with Accutase for 15 min at 37° C.). The cell count then present is determined using a CASY™ cell counter (TCC model, Schärfe System) in order subsequently to apply, depending on the density optimization for the individual cell line, 20,000-30,000 cells/well/100 μl of the described nutrient medium to 96-well measuring plates of the Corning™ CellBIND™ type (Flat Clear Bottom Black Polystyrene Microplates, #3340). Incubation is then carried out for one hour at room temperature, without gassing or adjusting the humidity, followed by incubation for 24 hours at 37° C., 5% CO2 and 95% humidity.
The voltage-sensitive fluorescent dye from the Membrane Potential Assay Kit (Red™ Bulk format part R8123 for FLIPR, MDS Analytical Technologies™) is prepared by dissolving the contents of a vessel Membrane Potential Assay Kit Red Component A in 200 ml of extracellular buffer (ES buffer, 120 mM NaCl, 1 mM KCl, 10 mM HEPES, 2 mM CaCl2, 2 mM MgCl2, 10 mM glucose; pH 7.4). After removal of the nutrient medium, the cells are washed with 200 μl of ES buffer, then covered with a layer of 100 μl of the dye solution prepared above and incubated for 45 min at room temperature with the exclusion of light.
The fluorescence measurements are carried out with a BMG Labtech FLUOstar™, BMG Labtech NOVOstar™ or BMG Labtech POLARstar™ instrument (525 nm excitation, 560 nm emission, Bottom Read mode). After incubation of the dye, 50 μl of the test substances in the desired concentrations, or 50 μl of ES buffer for control purposes, are introduced into separate cavities of the measuring plate and incubated for 30 min at room temperature while being shielded from light. The fluorescence intensity of the dye is then measured for 5 min and the fluorescence value F1 of each well is thus determined at a given, constant time. 15 μl of a […] KCl solution ([…]) are then added to each well. The change in fluorescence is subsequently measured until all the relevant measured values have been obtained (mainly 5-30 min). At a given time after KCl application, a fluorescence value F2 is determined, in this case at the time of the fluorescence peak.
For calculation, the fluorescence intensity F2 is compared with the fluorescence intensity F1, and the agonistic activity of the target compound on the potassium channel is determined therefrom. F2 and F1 are calculated as follows: […]
In order to determine whether a substance has agonistic activity,
A substance has an agonistic activity on the potassium channel when
[formula] it is possible to conclude that a target compound has agonistic activity if an increase in
Calculations of EC50 values are carried out with the aid of ‘Prism v4.0’ software (GraphPad Software™).

[1] = system: formalin-induced pain behaviour; experiment: Formalin test, mouse (phase 2, chronic pain component); assay type: in vivo; details: change in percent compared with vehicle control
Procedure: Formalin Test, Mouse The formalin test (Dubuisson, D. and Dennis, S. G., 1977, Pain, 4, 161-174) represents a model for both acute and chronic pain. By means of a single formalin injection into the dorsal side of a rear paw, a biphasic nociceptive reaction is induced in freely mobile test animals; the reaction is detected by observing three behaviour patterns which are clearly distinguishable from one another. The reaction is two-phase: phase 1=immediate reaction (duration up to 10 min; shaking of the paw, licking), phase 2=late reaction (after a rest phase; likewise shaking of the paw, licking; duration up to 60 min). The 1st phase reflects a direct stimulation of the peripheral nocisensors with high spinal nociceptive input (acute pain phase); the 2nd phase reflects a spinal and peripheral hypersensitization (chronic pain phase). In the studies described here, the chronic pain component (phase 2) has been evaluated. Formalin in a volume of 20 μl and a concentration of 1% is administered subcutaneously into the dorsal side of the right rear paw of each animal. The specific changes in behaviour, such as lifting, shaking or licking of the paw (score 3, Dubuisson & Dennis, 1977), are observed and recorded in the observation period of 21 to 24 minutes following the formalin injection. The behaviour of the animals after administration of the substance (n=10 per dose of substance) was compared with a control group which received vehicle (n=10). On the basis of the quantification of the pain behaviour, the action of the substance in the formalin test was determined as the change in percent compared with the control. The ED50 calculations (ED50=mean effective dose) were carried out by means of regression analysis according to the method of Litchfield and Wilcoxon (Litchfield, J. T., Wilcoxon, J. J., 1949, J. Pharmacol. Exp. Ther. 96, 99—113). The time of administration of the compound before the formalin injection was chosen as 5 min in the case of intravenous administration and 30 min in the case of oral administration.

SMILES | EC50 (KCNQ2/3 channels) [nM] | Emax (KCNQ2/3 channels) [%] | Formalin Test mouse IV effect @ dose [mg/kg] ([1]; 1 mg/kg) [% @ 1] | Formalin Test mouse IV effect @ dose [mg/kg] ([1]; 0.68 mg/kg) [% @ 0.68]
O=C(CC1CCCCC1)Nc1cc2ccccc2nc1SCCS(=O)(=O)c1ccccc1 [Example 1, 2-cyclohexyl-N-(2-(2-(phenylsulfonyl)ethylthio)quinolin-3-yl)acetamide] | 253 | 80 | – | –
O=C(CCC1CCCCC1)Nc1cc2ccccc2nc1SCCS(=O)(=O)c1ccccc1 [Example 3, 3-Cyclohexyl-N-(2-(2-(phenylsulfonyl)ethylthio)quinolin-3-yl)propanamide] | 174 | 97 | – | –
O=C(Cc1cccs1)Nc1cc2ccccc2nc1SCCSc1ccccc1 [Example 6, N-(2-(2-(phenylthio)ethylthio)quinolin-3-yl)-2-(thiophen-2-yl)acetamide] | – | 25 | – | –
CCSc1nc2ccccc2cc1NC(=O)Cc1cccs1 [Example 7, N-(2-(ethylthio)quinolin-3-yl)-2-(thiophen-2-yl)acetamide] | 156 | 93 | 24 | –
CCSc1nc2ccccc2cc1NC(=O)CC(C)(C)C [Example 9, N-(2-(ethylthio)quinolin-3-yl)-3,3-dimethylbutanamide] | 414 | 142 | – | –
CCSc1nc2cc(C(F)(F)F)ccc2cc1NC(=O)Cc1cccs1 [Example 10, N-[2-Ethylsulfanyl-7-(trifluoromethyl)quinolin-3-yl]-2-thiophen-2-yl-acetamide] | 1150 | 57 | – | –
CCSc1nc2cc(C(F)(F)F)ccc2cc1NC(=O)CC(C)(C)C [Example 11, N-[2-ethylsulfanyl-7-(trifluoromethyl)-quinolin-3-yl]-3,3-dimethyl-butyramide] | – | 35 | – | –
CCSc1nc2cc(C(F)(F)F)ccc2cc1NC(=O)CCC1CCCC1 [Example 12, 3-cyclopentyl-N-[2-ethylsulfanyl-7-(trifluoromethyl)-quinolin-3-yl]propionamide] | 5020 | 62 | – | –
CCSc1nc2ccccc2cc1NC(=O)CC1CC2CCC1C2 (stereo not shown) [Example 14, 2-(5-bicyclo[2.2.1]heptanyl)-N-(2-ethylsulfanyl-quinolin-3-yl)-acetamide] | 204 | 179 | – | –
CCSc1nc2cc(C(F)(F)F)ccc2cc1NC(=O)CC1CC2CCC1C2 (stereo not shown) [Example 16, 2-(5-bicyclo[2.2.1]heptanyl)-N-[2-ethylsulfanyl-7-(trifluoromethyl)-quinolin-3-yl]-acetamide] | 647 | 66 | – | –

Further compounds by falling EC50 (KCNQ2/3 channels), results first:

EC50 (KCNQ2/3 channels) [nM] | Emax (KCNQ2/3 channels) [%] | SMILES | Formalin Test mouse IV effect @ dose [mg/kg] ([1]; 1 mg/kg) [% @ 1] | Formalin Test mouse IV effect @ dose [mg/kg] ([1]; 0.68 mg/kg) [% @ 0.68]
150 | 101 | CCSc1nc2ccccc2cc1NC(=O)CC1CCCCC1 [Example 13, 2-Cyclohexyl-N-(2-ethylsulfanyl-quinolin-3-yl)-acetamide] | – | –
107 | 60 | CCCCCSc1nc2ccccc2cc1NC(=O)Cc1cccs1 [Example 4, N-(2-(pentylthio)quinolin-3-yl)-2-(thiophen-2-yl)acetamide] | – | –
94 | 140 | CCSc1nc2cc(C(F)(F)F)ccc2c(C)c1NC(=O)Cc1cccs1 [Example 18, N-[2-ethylsulfanyl-4-methyl-7-(trifluoromethyl)-quinolin-3-yl]-2-thiophen-2-yl-acetamide] | 43 | –
82 | 143 | CCSc1nc2ccccc2cc1NC(=O)CCC1CCCC1 [Example 15, 3-cyclopentyl-N-(2-ethylsulfanyl-quinolin-3-yl)-propionamide] | 17 | –
67 | 80 | O=C(Cc1cccs1)Nc1cc2ccccc2nc1SCCS(=O)(=O)c1ccccc1 [Example 2, N-(2-(2-(phenylsulfonyl)ethylthio)quinolin-3-yl)-2-(thiophen-2-yl)acetamide] | – | –
66 | 107 | CCSc1nc2cc(C(F)(F)F)ccc2c(C)c1NC(=O)CCC1CCCC1 [Example 17, 3-cyclopentyl-N-[2-ethylsulfanyl-4-methyl-7-(trifluoromethyl)-quinolin-3-yl]-propionamide] | – | 90
